Test results reported in EP2765189A1, “Recombinant DNA constructs and methods for controlling gene expression” (Monsanto Technology LLC, priority 2004, dated 2006).
Like-named read-outs stand apart in the source and are kept apart here.

Assays:
[1] = target: bacterial lysine riboswitches; conditions: in vitro, Sudarsan et al. (2003), cited from earlier work
CP4 = CP4 expression in stably transformed maize callus carrying a theophylline "off" "trans" riboswitch; type: cell-based; conditions: transformed cells treated with theophylline
Text: "trans" riboswitches, similarly to the "cis" riboswitches described in Examples […], are useful in regulating transgenes. In a specific example, a transgenic plant including a "trans" riboswitch designed to regulate the glyphosate-resistance transgene CP4 as the target sequence is particularly useful in "trans" riboswitch-controlled applications parallel to that described in Example 23 (glyphosate as a ligand for ligand-activated herbicide resistance, or for control of herbicide resistant volunteers) and Example 24 (glyphosate as a chemical hybridization agent). To illustrate this approach, CP4 expression is suppressed in stably transformed maize callus. A modified transcribable DNA encoding an "off' "trans" riboswitch with theophylline as its ligand (Bayer and Smolke (2005) Nature Biotechnol., 23:337-343) is designed to target CP4 as a target sequence. Transcription of the theophylline riboswitch can be driven either by a pol II promoter (e. g., Figure 27A) or by pol III promoter (e. g., Figure 27B). The transcribable DNA is inserted into a binary vector (Figure 30) and co-transformed into maize callus under nptIII selection, generating stably transformed maize callus lines. CP4 expression is assayed in the transformed cells, where CP4 expression is observed to be suppressed in transformed cells that are treated with theophylline.

LKR/SDH = LKR/SDH expression in transformed maize cells carrying a theophylline "off" "trans" riboswitch; type: cell-based; conditions: transformed cells treated with theophylline
Procedure: Similarly, a "trans" riboswitch is used to control expression of an endogenous target sequence (lysine ketoglutarate reductase/saccharopine dehydrogenase gene, LKR/SDH) in stably transformed maize plants. A modified transcribable DNA encoding an "off' "trans" riboswitch with theophylline as its ligand (Bayer and Smolke (2005) Nature Biotechnol., 23:337-343) is designed to target at least one region of the LKR/SDH sequence, and co-transformed into maize callus. LKR/SDH expression is assayed in the resulting transformed cells, where LKR/SDH expression is observed to be suppressed in transformed cells that are treated with theophylline.

Question: Which Kd ([1]; read-out: Kd) does the source give for `NCCCC[C@H](N)C(=O)O` [lysine] here?
Answer: ~1000 µM

Question: And the Kd ([1]; same value given in ppm)?
Answer: ~128 ppm

Question: Which results are given for `Cn1c(=O)c2[nH]cnc2n(C)c1=O` [theophylline]?
Answer: CP4 expression (CP4): suppressed; LKR/SDH expression (LKR/SDH): suppressed
